Key:
Pyrenophora teres = Pyrenophora teres / barley / leaf disc preventative (net blotch); assay type: in vivo; conditions: foliar, barley leaf segments cv Hasso, inoculated two days after application, assessed 5-7 days after application, read-out: control of Pyrenophora teres (disease control compared to untreated)
Procedure: Pyrenophora Teres/Barley/Leaf Disc Preventative (Net Blotch): Barley leaf segments cv Hasso are placed on agar in a 24-well plate and sprayed with formulated test compound diluted in water at an application rate of 200 ppm. The leaf segments are inoculated with a spore suspension of the fungus two days after application of the test solution. The inoculated leaf segments are incubated at 20° C. and 65% relative humidity under a light regime of 12/12 h (light/dark) in a climate cabinet and the activity of a compound is assessed as disease control compared to untreated when an appropriate level of disease damage appears in untreated check leaf segments (5-7 days after application).

[1] = tested on: Mycosphaerella graminicola (Septoria tritici); test: Mycosphaerella graminicola (Septoria tritici) / liquid culture (Septoria blotch); assay type: cell-based; conditions: Zymoseptoria tritici, PDB, 24° C., 4-5 days after application, read-out: control of Mycosphaerella graminicola (inhibition of growth, photometric)
Procedure: (§1) Mycosphaerella graminicola (Septoria tritici)/Liquid Culture (Septoria Blotch): Conidia of the fungus from cryogenic storage were directly mixed into nutrient broth (PDB potato dextrose broth). After placing a DMSO solution of test compound into a 96-well microtiter plate at an application rate of 200 ppm, the nutrient broth containing the fungal spores was added. The test plates were incubated at 24° C. and the inhibition of growth was determined photometrically 4-5 days after application.

[2] = tested on: Thanatephorus cucumeris (Rhizoctonia solani); test: Thanatephorus cucumeris (Rhizoctonia solani) / liquid culture (foot rot, damping-off); assay type: cell-based; conditions: PDB, 24° C., 3-4 days after application, read-out: control of Thanatephorus cucumeris (inhibition of growth, photometric)
Procedure: Thanatephorus cucumeris (Rhizoctonia solani)/Liquid Culture (Foot Rot, Damping-Off): Mycelia fragments of a newly grown liquid culture of the fungus are directly mixed into nutrient broth (PDB potato dextrose broth). After placing a DMSO solution of the test compounds into a 96-well microtiter plate at an application rate of 200 ppm, the nutrient broth containing the fungal material was added. The test plates were incubated at 24° C. and the inhibition of growth was determined photometrically 3-4 days after application.

[3] = tested on: Glomerella lagenarium (Colletotrichum lagenarium); test: Glomerella lagenarium (Colletotrichum lagenarium) / liquid culture (anthracnose); assay type: cell-based; conditions: Colletotrichum orbiculare, PDB, 24° C., 3-4 days after application, read-out: control of Glomerella lagenarium (inhibition of growth, photometric)
Procedure: as §1, with “Glomerella lagenarium (Colletotrichum lagenarium)/Liquid” for “Mycosphaerella graminicola (Septoria tritici)/Liquid”, “(Anthracnose):” for “(Septoria Blotch):”, “is measured” for “was determined”, “3-4” for “4-5”

[4] = tested on: Monographella nivalis (Microdochium nivale); test: Monographella nivalis (Microdochium nivale) / liquid culture (foot rot cereals); assay type: cell-based; conditions: PDB, 24° C., 4-5 days after application, read-out: control of Monographella nivalis (inhibition of growth, photometric)
Procedure: as §1, with “Monographella nivalis (Microdochium nivale)/Liquid” for “Mycosphaerella graminicola (Septoria tritici)/Liquid”, “(Foot Rot Cereals):” for “(Septoria Blotch):”

[5] = tested on: Botryotinia fuckeliana (Botrytis cinerea); test: Botryotinia fuckeliana (Botrytis cinerea) / liquid culture (gray mould); assay type: cell-based; conditions: Vogels broth, 24° C., 3-4 days after application, read-out: control of Botryotinia fuckeliana (inhibition of growth, photometric)
Procedure: as §1, with “Botryotinia Fuckeliana (Botrytis cinerea)/Liquid” for “Mycosphaerella graminicola (Septoria tritici)/Liquid”, “(Gray Mould):” for “(Septoria Blotch):”, “(Vogels” for “(PDB potato dextrose”, “3-4” for “4-5”

[6] = tested on: Puccinia recondita f. sp. Tritici; test: Puccinia recondita f. sp. tritici / wheat / leaf disc preventative (brown rust); assay type: in vivo; conditions: foliar, wheat leaf segments cv Kanzler, inoculated 1 day after application, assessed 7-9 days after application, read-out: control of Puccinia recondita f. sp. Tritici (percent disease control compared to untreated)
Procedure: Puccinia recondita f. Sp. Tritici/Wheat/Leaf Disc Preventative (Brown Rust): Wheat leaf segments cultivated variety (cv) Kanzler were placed on agar in 24-well plates and sprayed with formulated test compound diluted in water at an application rate of 200 ppm. The leaf disks were inoculated with a spore suspension of the fungus 1 day after application. The inoculated leaf segments were incubated at 19° C. and 75% relative humidity under a light regime of 12/12 h (light/dark) in a climate cabinet and the activity of a compound was assessed as percent disease control compared to untreated when an appropriate level of disease damage appears in untreated check leaf segments (7-9 days after application).

Gaeumannomyces graminis = Gaeumannomyces graminis / liquid culture (take-all of cereals); assay type: cell-based; conditions: PDB, 24° C., 4-5 days after application, read-out: control of Gaeumannomyces graminis (inhibition of growth, photometric)
Procedure: Gaeumannomyces graminis/Liquid Culture (Take-all of Cereals): Mycelial fragments of the fungus from cryogenic storage were directly mixed into nutrient broth (PDB potato dextrose broth). After placing a DMSO solution of test compound into a 96-well microtiter plate at an application rate of 200 ppm, the nutrient broth […], containing the fungal spores is added. The test plates were incubated at 24° C. and the inhibition of growth was determined photometrically 4-5 days after application.

[7] = tested on: Phaeosphaeria nodorum (Septoria nodorum); test: Phaeosphaeria nodorum (Septoria nodorum) / wheat / leaf disc preventative (glume blotch); assay type: in vivo; conditions: Parastagonospora nodorum, foliar, wheat leaf segments cv Kanzler, inoculated 2 days after application, assessed 5-7 days after application, read-out: control of Phaeosphaeria nodorum (percent disease control compared to untreated)
Procedure: Phaeosphaeria nodorum (Septoria nodorum)/Wheat/Leaf Disc Preventative (Glume Blotch): Wheat leaf segments cv Kanzler were placed on agar in a 24-well plate and sprayed with formulated test compound diluted in water at an application rate of 200 ppm. The leaf disks are inoculated with a spore suspension of the fungus 2 days after application. The inoculated test leaf disks are incubated at 20° C. and 75% relative humidity under a light regime of 12/12 h (light/dark) in a climate cabinet and the activity of a compound is assessed as percent disease control compared to untreated when an appropriate level of disease damage appears in untreated check leaf disks (5-7 days after application).

Sclerotinia sclerotiorum = Sclerotinia sclerotiorum liquid culture (cottony rot / white mold); assay type: cell-based; conditions: PDB, 24° C., 3-4 days after application, read-out: control of Sclerotinia sclerotiorum (inhibition of growth, photometric)
Procedure: Sclerotinia sclerotiorum (Cottony Rot/White Mold): Mycelia fragments of a newly grown liquid culture of the fungus were directly mixed into nutrient broth (PDB potato dextrose broth). After placing a (DMSO) solution of test compound into a microtiter plate (96-well format) the nutrient broth containing the fungal material was added. The test plates are incubated at 24° C. and the inhibition of growth was determined photometrically 3-4 days after application.

CCCCCCO/N=C(\C)c1cncc2nc(-n3ncnc3N)n(CC)c12 [Compound 148]
≥ 80%: pest or weed control at 200 ppm (Pyrenophora teres) | inhibition at 20 ppm [1] | inhibition at 20 ppm [2] | inhibition at 20 ppm [3]

C/C=C/CO/N=C(\C)c1cncc2nc(-n3ncnc3N)n(CC)c12 [Compound 177]
≥ 80%: inhibition at 20 ppm [4] | inhibition at 20 ppm [1] | inhibition at 20 ppm [2] | inhibition at 20 ppm [5]

CCCn1c(-n2ncnc2N)nc2cncc(/C(C)=N/OC/C=C/Cl)c21 [Compound 183]
≥ 80%: pest or weed control at 200 ppm (Pyrenophora teres) | inhibition at 20 ppm [4] | inhibition at 20 ppm [1] | pest or weed control at 200 ppm [6] | inhibition at 20 ppm [2] | inhibition at 20 ppm (Gaeumannomyces graminis) | inhibition at 20 ppm [5]

CCCn1c(-n2ncnc2N)nc2cncc(/C(C)=N/OCC=C(C)C)c21 [Compound 189]
≥ 80%: inhibition at 20 ppm [4] | inhibition at 20 ppm [1] | pest or weed control at 200 ppm [6] | inhibition at 20 ppm [2]

CCn1c(-n2ncnc2N)nc2cncc(/C(C)=N/OCC=C(C)C)c21 [Compound 157]
≥ 80%: pest or weed control at 200 ppm (Pyrenophora teres) | inhibition at 20 ppm [1] | pest or weed control at 200 ppm [6] | inhibition at 20 ppm [2] | inhibition at 20 ppm [3]

CCn1c(-n2ncnc2N)nc2cncc(-c3cc(F)cc(F)c3)c21 [Compound 37, 2-[7-(3,5-difluorophenyl)-1-ethylimidazo[4,5-c]pyridin-2-yl]-1,2,4-triazol-3-amine]
≥ 80%: pest or weed control at 200 ppm (Pyrenophora teres) | inhibition at 20 ppm [1] | inhibition at 20 ppm [2] | pest or weed control at 200 ppm [7] | inhibition at 20 ppm [5] | inhibition at 20 ppm [3]

CCn1c(-n2ncnc2N)nc2cncc(-c3cccc(OC)c3OC)c21 [Compound 83, 2-[7-(2,3-dimethoxyphenyl)-1-ethylimidazo[4,5-c]pyridin-2-yl]-1,2,4-triazol-3-amine]
≥ 80%: pest or weed control at 200 ppm (Pyrenophora teres) | inhibition at 20 ppm [1] | pest or weed control at 200 ppm [6] | inhibition at 20 ppm [2] | inhibition at 20 ppm (Gaeumannomyces graminis) | pest or weed control at 200 ppm [7] | inhibition at 20 ppm [5]

CCn1c(-n2ncnc2N)nc2cncc(-c3ccc(Cl)cc3)c21 [Compound 35, 2-[7-(4-chlorophenyl)-1-ethylimidazo[4,5-c]pyridin-2-yl]-1,2,4-triazol-3-amine]
≥ 80%: pest or weed control at 200 ppm (Pyrenophora teres) | inhibition at 20 ppm (Sclerotinia sclerotiorum) | inhibition at 20 ppm [1] | pest or weed control at 200 ppm [6] | inhibition at 20 ppm [2] | inhibition at 20 ppm [5] | inhibition at 20 ppm [3]

CCn1c(-n2ncnc2N)nc2cncc(-c3ccc(OC)cc3OC)c21 [Compound 81, 2-[7-(2,4-dimethoxyphenyl)-1-ethylimidazo[4,5-c]pyridin-2-yl]-1,2,4-triazol-3-amine]
≥ 80%: pest or weed control at 200 ppm (Pyrenophora teres) | inhibition at 20 ppm [4] | inhibition at 20 ppm [1] | pest or weed control at 200 ppm [6] | inhibition at 20 ppm [2] | inhibition at 20 ppm (Gaeumannomyces graminis) | inhibition at 20 ppm [5]

CCn1c(-n2ncnc2N)nc2cncc(-c3cccc(Cl)c3Cl)c21 [Compound 87, 2-[7-(2,3-dichlorophenyl)-1-ethylimidazo[4,5-c]pyridin-2-yl]-1,2,4-triazol-3-amine]
≥ 80%: pest or weed control at 200 ppm (Pyrenophora teres) | inhibition at 20 ppm [4] | inhibition at 20 ppm [1] | pest or weed control at 200 ppm [6] | inhibition at 20 ppm [2] | inhibition at 20 ppm (Gaeumannomyces graminis) | inhibition at 20 ppm [5]

CCCn1c(-n2ncnc2N)nc2cncc(-c3ccccc3F)c21 [Compound 121, 2-[7-(2-fluorophenyl)-1-propylimidazo[4,5-c]pyridin-2-yl]-1,2,4-triazol-3-amine]
≥ 80%: pest or weed control at 200 ppm (Pyrenophora teres) | inhibition at 20 ppm [1] | pest or weed control at 200 ppm [6] | inhibition at 20 ppm [2] | inhibition at 20 ppm (Gaeumannomyces graminis) | pest or weed control at 200 ppm [7] | inhibition at 20 ppm [5] | inhibition at 20 ppm [3]

CCn1c(-n2ncnc2N)nc2cncc(-c3ccc(C)c(F)c3)c21 [Compound 41, 2-[1-ethyl-7-(3-fluoro-4-methylphenyl)imidazo[4,5-c]pyridin-2-yl]-1,2,4-triazol-3-amine]
≥ 80%: pest or weed control at 200 ppm (Pyrenophora teres) | inhibition at 20 ppm (Sclerotinia sclerotiorum) | inhibition at 20 ppm [1] | pest or weed control at 200 ppm [6] | inhibition at 20 ppm [2] | inhibition at 20 ppm [5]

CCCn1c(-n2ncnc2N)nc2cncc(/C(C)=N/OC/C=C(\C)Cl)c21 [Compound 185]
≥ 80%: pest or weed control at 200 ppm (Pyrenophora teres) | inhibition at 20 ppm [4] | inhibition at 20 ppm [1] | inhibition at 20 ppm [2] | inhibition at 20 ppm [5]

CCn1c(-n2ncnc2N)nc2cncc(-c3cc(C(F)(F)F)ccc3F)c21 [Compound 84, 2-[1-ethyl-7-[2-fluoro-5-(trifluoromethyl)phenyl]imidazo[4,5-c]pyridin-2-yl]-1,2,4-triazol-3-amine]
≥ 80%: pest or weed control at 200 ppm (Pyrenophora teres) | inhibition at 20 ppm (Sclerotinia sclerotiorum) | inhibition at 20 ppm [1] | inhibition at 20 ppm [2] | inhibition at 20 ppm (Gaeumannomyces graminis) | inhibition at 20 ppm [5]

CCn1c(-n2ncnc2N)nc2cncc(-c3ccc(F)cc3OC)c21 [Compound 95, 2-[1-ethyl-7-(4-fluoro-2-methoxyphenyl)imidazo[4,5-c]pyridin-2-yl]-1,2,4-triazol-3-amine]
≥ 80%: inhibition at 20 ppm [4] | inhibition at 20 ppm [1] | pest or weed control at 200 ppm [6] | inhibition at 20 ppm [2] | inhibition at 20 ppm (Gaeumannomyces graminis)

Reference: patent US9512120B2, “Microbicidally active imidazopyridine derivatives” (Syngenta Participations AG, priority 2013, dated 2016)
